Experiment: Stability test of indacaterol maleate-glycopyrronium bromide compositions at different pH (Example 7)
Format: physicochemical
Conditions: 4 weeks at 60° C.
Description: The soft mist solutions of indatarol indacaterol maleate and glycopyrronium bromide at different pH were prepared as follows. Six 0.02 mM citric acid solution each 500 mL were prepared. pH was adjusted to 2.5, 3.0, 3.5, 4.0, 4.5, and 5.0 with 1 M (mol/L) of sodium hydroxide solution. Indacaterol maleate and glycopyrronium bromide were added. In order to improve the dissolution of indacaterol, all the drug solutions were ultrasonicated in a water bath at 30° C. for 20 min until no visible particles were found.
The drug solutions were placed in glass bottles and stability test was performed to determine the contents of indacaterol and glycopyrronium bromide and total impurities in the samples at the initial state and after 4 weeks at 60° C.

| SMILES | pH at which the active ingredient is stable | optimal (best) pH for stability |
| --- | --- | --- |
| C[N+]1(C)CCC(OC(=O)C(O)(c2ccccc2)C2CCCC2)C1 (centres unmarked) [glycopyrronium bromide] | 2.5-3.5 |  |
| CCc1cc2c(cc1CC)CC(NC[C@H](O)c1ccc(O)c3[nH]c(=O)ccc13)C2 [Indacaterol, indacaterol] |  | 3.5 |

— patent US20260069601A1, “PHARMACEUTICAL COMPOSITION FOR INHALATION FOR PREVENTING OR TREATING RESPIRATORY DISEASE” (LEXENPHARM (SUZHOU) LIMITED, priority 2022, published 2026)
